Data as given in ChEMBL document CHEMBL1201862, “PubChem BioAssay data set” (2004).
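Grown in 96-well plates, cells were treated for 48 hours with each compound at five concentrations. Insufficient inhibition: endpoint recorded as highest concentration tested. The concentration for 50% growth inhibition is given as GI50.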 Active and inactive are the calls of the source. No stated cut-off is given here; in the data, active = GI50 up to about 1.1 µM and inactive = higher.

Legend:
Test in all cases: DTP human tumour cell line panel, 48 h
[1] = test system: OVCAR-8
[2] = test system: OVCAR-4
[3] = test system: NCI-H460
[4] = test system: NCI-H23
[5] = test system: SNB-75
[6] = test system: A549
[7] = test system: HOP-92
[8] = test system: SF-295
[9] = test system: U-251
[10] = test system: COLO 205
[11] = test system: 786-0
[12] = test system: RPMI-8226
[13] = test system: OVCAR-3
[14] = test system: Malme-3M
[15] = test system: DLD-1
[16] = test system: SNB-19
[17] = test system: LOX IMVI
[18] = test system: HT-29
[19] = test system: IGROV-1
[20] = test system: PC-3

Compound | GI50 [1] | GI50 [2] | GI50 [3] | GI50 [4] | GI50 [5] | GI50 [6] | GI50 [7] | GI50 [8] | GI50 [9] | GI50 [10] | GI50 [11] | GI50 [12] | GI50 [13] | GI50 [14] | GI50 [15] | GI50 [16] | GI50 [17] | GI50 [18] | GI50 [19] | GI50 [20]
C#CCN(N=O)C(=O)NCCCC(NC(C)=O)C(=O)NCc1ccccc1 (configuration not stated) | > 100 µM (inactive) | > 100 µM (inactive) | 28.8 µM (inactive) | > 100 µM (inactive) | 96.8 µM (inactive) | > 100 µM (inactive) | > 100 µM (inactive) | > 100 µM (inactive) | > 100 µM (inactive) | 66.4 µM (inactive) | > 100 µM (inactive) | 15.9 µM (inactive) | > 100 µM (inactive) | > 100 µM (inactive) | > 100 µM (inactive) | > 100 µM (inactive) | 82.2 µM (inactive) | > 100 µM (inactive) | > 100 µM (inactive) | –
CCCCCCCC(=O)OC(CBr)COC(=O)C(C)(C)C (configuration not stated) | > 100 µM (inactive) | > 95.1 µM (inactive) | > 100 µM (inactive) | > 100 µM (inactive) | 12.1 µM (inactive) | > 100 µM (inactive) | > 95.5 µM (inactive) | > 100 µM (inactive) | > 100 µM (inactive) | > 100 µM (inactive) | > 100 µM (inactive) | 21.6 µM (inactive) | > 68.2 µM (inactive) | > 100 µM (inactive) | > 100 µM (inactive) | > 100 µM (inactive) | > 63.2 µM (inactive) | > 88.5 µM (inactive) | > 100 µM (inactive) | –
O=[N+]([O-])C1(CO)COC2(OC1)c1ccccc1-c1ccccc12 | > 78.3 µM (inactive) | > 100 µM (inactive) | > 77.4 µM (inactive) | > 100 µM (inactive) | > 100 µM (inactive) | > 100 µM (inactive) | > 71.1 µM (inactive) | > 100 µM (inactive) | > 77.8 µM (inactive) | 40.5 µM (inactive) | 63.8 µM (inactive) | 23.8 µM (inactive) | > 73.5 µM (inactive) | 48.5 µM (inactive) | 36 µM (inactive) | > 100 µM (inactive) | 45.6 µM (inactive) | > 63.5 µM (inactive) | > 89.1 µM (inactive) | > 74.8 µM (inactive)
O=[N+]([O-])c1cccc2nc3ccccc3c(NCCN(CCO)CCO)c12 | 0.00351 µM (active) | 0.00453 µM (active) | 0.000815 µM (active) | 0.00222 µM (active) | 0.00726 µM (active) | 0.00272 µM (active) | 0.00447 µM (active) | 0.00698 µM (active) | 0.00391 µM (active) | 0.000904 µM (active) | 0.00429 µM (active) | 0.00246 µM (active) | 0.00536 µM (active) | 0.00296 µM (active) | 0.0069 µM (active) | 0.00783 µM (active) | 0.00701 µM (active) | 0.00256 µM (active) | 0.00578 µM (active) | 0.00213 µM (active)
O=C1C=C(Br)C(=O)C(Br)=C1 | > 100 µM (inactive) | > 100 µM (inactive) | > 100 µM (inactive) | > 100 µM (inactive) | > 100 µM (inactive) | > 100 µM (inactive) | > 100 µM (inactive) | > 100 µM (inactive) | > 100 µM (inactive) | > 61.4 µM (inactive) | > 100 µM (inactive) | 37.6 µM (inactive) | > 62.2 µM (inactive) | > 100 µM (inactive) | > 96.6 µM (inactive) | > 100 µM (inactive) | > 31.6 µM (inactive) | > 100 µM (inactive) | > 100 µM (inactive) | –
COc1ccc(N2C(=O)C3c4[nH]c5ccccc5c4C4CCCCCCCCCCC4C3C2=O)cc1 (configuration not stated) | 3.39 µM (inactive) | 26.2 µM (inactive) | 4.92 µM (inactive) | 9.38 µM (inactive) | 12.7 µM (inactive) | 4.84 µM (inactive) | 19 µM (inactive) | 10.7 µM (inactive) | 7.62 µM (inactive) | 14.7 µM (inactive) | 3.65 µM (inactive) | 18.7 µM (inactive) | 9.95 µM (inactive) | 17.1 µM (inactive) | 8.77 µM (inactive) | 8.81 µM (inactive) | 11.1 µM (inactive) | 4.42 µM (inactive) | > 28.2 µM (inactive) | –
CCOC(=O)c1[nH]c(COC(C)=O)c2c1CCCCCCCCCC2 | > 100 µM (inactive) | > 100 µM (inactive) | > 100 µM (inactive) | > 100 µM (inactive) | > 100 µM (inactive) | > 100 µM (inactive) | > 100 µM (inactive) | > 100 µM (inactive) | > 100 µM (inactive) | > 100 µM (inactive) | > 100 µM (inactive) | > 100 µM (inactive) | > 100 µM (inactive) | > 100 µM (inactive) | > 100 µM (inactive) | > 100 µM (inactive) | > 100 µM (inactive) | > 100 µM (inactive) | > 100 µM (inactive) | –
CC(C)C(Sc1nc(-c2ccccc2)c(-c2ccccc2)[nH]1)c1n[nH]c(=S)n1-c1ccccc1 (configuration not stated) | 34.5 µM (inactive) | 35.5 µM (inactive) | 32.3 µM (inactive) | 21.9 µM (inactive) | 66.5 µM (inactive) | 33.7 µM (inactive) | 22.5 µM (inactive) | 22.3 µM (inactive) | 22.9 µM (inactive) | 23.9 µM (inactive) | 30.8 µM (inactive) | 21.2 µM (inactive) | 19.6 µM (inactive) | 21.2 µM (inactive) | 41.5 µM (inactive) | 25 µM (inactive) | 17.5 µM (inactive) | 23.8 µM (inactive) | 26.4 µM (inactive) | –
CSc1nc(NC2OCC(OC(C)=O)C(OC(C)=O)C2OC(C)=O)c(/N=C\C=N\c2c(NC3OCC(OC(C)=O)C(OC(C)=O)C3OC(C)=O)nc(SC)n(C)c2=O)c(=O)n1C (configuration not stated) | > 100 µM (inactive) | > 100 µM (inactive) | > 100 µM (inactive) | > 100 µM (inactive) | > 100 µM (inactive) | > 100 µM (inactive) | > 100 µM (inactive) | > 100 µM (inactive) | > 100 µM (inactive) | > 100 µM (inactive) | > 100 µM (inactive) | > 100 µM (inactive) | > 100 µM (inactive) | > 100 µM (inactive) | > 100 µM (inactive) | 38.4 µM (inactive) | > 100 µM (inactive) | > 100 µM (inactive) | > 100 µM (inactive) | –
COc1cc(/C=C\c2ccccc2)cc(OC)c1OC | 3.69 µM (inactive) | 6.46 µM (inactive) | 2.55 µM (inactive) | 4.13 µM (inactive) | 2.1 µM (inactive) | 5.28 µM (inactive) | 3.53 µM (inactive) | 2.18 µM (inactive) | 4.15 µM (inactive) | 3.08 µM (inactive) | 5.08 µM (inactive) | 4.18 µM (inactive) | 2.29 µM (inactive) | 2.95 µM (inactive) | 3.19 µM (inactive) | 6.08 µM (inactive) | 4.6 µM (inactive) | 2.75 µM (inactive) | 4.65 µM (inactive) | –
